Laboratory results: US20230398130A1, “METHODS AND COMPOSITIONS FOR DIFFERENTIATING STEM CELLS” (Massachusetts Institute of Technology, priority 2020, published 2023)

Legend:
[1] = tested on: ISC-enriched organoids; assay: Primary screen, 384-well 2.5-D organoid differentiation (ENR+CD, 6 days, Target Selective Inhibitor Library, vs whole-plate median): ATP (CellTiter-Glo 3D, CTG); conditions: primary screen; for Dose.FC.CTG: FC vs plate median; for Z.CTG: standard z score; for SSMD.CTG: strictly standardized mean difference
[2] = tested on: ISC-enriched organoids; assay: Primary screen, 384-well 2.5-D organoid differentiation (ENR+CD, 6 days): basal lysozyme secretion (LYZ.NS); assay type: cell-based, murine; conditions: primary screen; for Dose.FC.LYZ.NS: FC vs plate median; for Z.LYZ.NS: standard z score; for SSMD.LYZ.NS: strictly standardized mean difference
From the text: (§1) High-throughput screening.

[3] = tested on: ISC-enriched organoids; assay: Primary screen, 384-well 2.5-D organoid differentiation (ENR+CD, 6 days): carbachol-induced lysozyme secretion (LYZ.S); assay type: cell-based, murine; conditions: primary screen; for Dose.FC.LYZ.S: FC vs plate median; for Z.LYZ.S: standard z score; for SSMD.LYZ.S: strictly standardized mean difference
From the text: as §1

[4] = 1st of the 4 dose lines of the treatment (dose not given)
[5] = 2nd of the 4 dose lines of the treatment (dose not given)
[6] = 3rd of the 4 dose lines of the treatment (dose not given)
[7] = 4th of the 4 dose lines of the treatment (dose not given)

SMILES | Dose.FC.CTG ([1]; Dose 0.08 uM) [log 2 fold change] | Z.CTG ([1]; Dose 0.08 uM) | Dose.FC.CTG ([1]; Dose 0.40 uM) [log 2 fold change] | Z.CTG ([1]; Dose 0.40 uM) | Dose.FC.CTG ([1]; Dose 2.00 uM) [log 2 fold change] | Z.CTG ([1]; Dose 2.00 uM) | Dose.FC.CTG ([1]; Dose 10.00 uM) [log 2 fold change] | Z.CTG ([1]; Dose 10.00 uM) | SSMD.CTG [1, 4] | SSMD.CTG [1, 5] | SSMD.CTG [1, 6] | SSMD.CTG [1, 7] | Dose.FC.LYZ.NS ([2]; Dose 0.08 uM) [log 2 fold change] | Z.LYZ.NS ([2]; Dose 0.08 uM) | Dose.FC.LYZ.NS ([2]; Dose 0.40 uM) [log 2 fold change] | Z.LYZ.NS ([2]; Dose 0.40 uM) | Dose.FC.LYZ.NS ([2]; Dose 2.00 uM) [log 2 fold change] | Z.LYZ.NS ([2]; Dose 2.00 uM) | Dose.FC.LYZ.NS ([2]; Dose 10.00 uM) [log 2 fold change] | Z.LYZ.NS ([2]; Dose 10.00 uM) | further results
O=C(c1ccc(Nc2nccc(-c3cc4ccccc4s3)n2)cc1)N1CCC(N2CCCC2)CC1 [IKK-16 (IKK Inhibitor VII)] | 0.058 | 0.139 | −0.051 | −0.122 | −0.431 | −1.029 | −0.950 | −2.268 | 0.131 | −0.190 | −0.877 | −1.581 | 0.104 | 0.903 | 0.020 | 0.176 | −0.081 | −0.708 | −0.291 | −2.531 | SSMD.LYZ.NS [2, 4]: 0.817; SSMD.LYZ.NS [2, 5]: 0.207; SSMD.LYZ.NS [2, 6]: −0.481; SSMD.LYZ.NS [2, 7]: −2.119; Dose.FC.LYZ.S ([3]; Dose 0.08 uM): 0.092 log 2 fold change; Dose.FC.LYZ.S ([3]; Dose 0.40 uM): 0.028 log 2 fold change; Dose.FC.LYZ.S ([3]; Dose 2.00 uM): −0.142 log 2 fold change; Dose.FC.LYZ.S ([3]; Dose 10.00 uM): −0.383 log 2 fold change; Z.LYZ.S [3, 4]: 0.593; Z.LYZ.S [3, 5]: 0.179; Z.LYZ.S [3, 6]: −0.918; Z.LYZ.S [3, 7]: −2.475; SSMD.LYZ.S [3, 4]: 0.496; SSMD.LYZ.S [3, 5]: 0.203; SSMD.LYZ.S [3, 6]: −0.698; SSMD.LYZ.S [3, 7]: −1.351
O=C(Nc1cc(C(F)(F)F)cc(C(F)(F)F)c1)c1cc(Cl)ccc1O [IMD 0354] | −0.007 | −0.017 | 0.117 | 0.280 | 0.076 | 0.181 | −0.480 | −1.146 | −0.019 | 0.258 | 0.274 | −0.748 | 0.004 | 0.035 | 0.101 | 0.880 | 0.097 | 0.847 | −0.089 | −0.777 | SSMD.LYZ.NS [2, 4]: 0.021; SSMD.LYZ.NS [2, 5]: 0.439; SSMD.LYZ.NS [2, 6]: 0.612; SSMD.LYZ.NS [2, 7]: −0.729; Dose.FC.LYZ.S ([3]; Dose 0.08 uM): −0.047 log 2 fold change; Dose.FC.LYZ.S ([3]; Dose 0.40 uM): 0.043 log 2 fold change; Dose.FC.LYZ.S ([3]; Dose 2.00 uM): 0.083 log 2 fold change; Dose.FC.LYZ.S ([3]; Dose 10.00 uM): −0.128 log 2 fold change; Z.LYZ.S [3, 4]: −0.303; Z.LYZ.S [3, 5]: 0.281; Z.LYZ.S [3, 6]: 0.534; Z.LYZ.S [3, 7]: −0.826; SSMD.LYZ.S [3, 4]: −0.335; SSMD.LYZ.S [3, 5]: 0.203; SSMD.LYZ.S [3, 6]: 0.537; SSMD.LYZ.S [3, 7]: −0.736
O=C(O)CNC(=O)c1c(O)c2ccccc2n(Cc2ccccc2)c1=O [IOX2] | 0.149 | 0.356 | 0.078 | 0.185 | 0.097 | 0.232 | 0.001 | 0.002 | 0.501 | 0.264 | 0.287 | 0.003 | 0.029 | 0.254 | 0.028 | 0.246 | 0.043 | 0.376 | −0.045 | −0.388 | SSMD.LYZ.NS [2, 4]: 0.296; SSMD.LYZ.NS [2, 5]: 0.182; SSMD.LYZ.NS [2, 6]: 0.408; SSMD.LYZ.NS [2, 7]: −0.420; Dose.FC.LYZ.S ([3]; Dose 0.08 uM): 0.047 log 2 fold change; Dose.FC.LYZ.S ([3]; Dose 0.40 uM): 0.071 log 2 fold change; Dose.FC.LYZ.S ([3]; Dose 2.00 uM): 0.001 log 2 fold change; Dose.FC.LYZ.S ([3]; Dose 10.00 uM): −0.049 log 2 fold change; Z.LYZ.S [3, 4]: 0.305; Z.LYZ.S [3, 5]: 0.456; Z.LYZ.S [3, 6]: 0.005; Z.LYZ.S [3, 7]: −0.314; SSMD.LYZ.S [3, 4]: 0.359; SSMD.LYZ.S [3, 5]: 0.428; SSMD.LYZ.S [3, 6]: 0.006; SSMD.LYZ.S [3, 7]: −0.298
